Results taken from a melting point compilation (Tetko et al.; mined from patent text by program, amines drawn as free bases though some values may be those of a salt).

`O=C(OC1CCCC1)c1ncn2c1[C@@H]1CCN1C(=O)c1c(I)cccc1-2` gave a melting point of 184 to 185 °C.
With `CC(C)COc1ccc(F)cc1OCCOS(C)(=O)=O` the melting point was 53 to 55 °C.
With `CC(CO)n1cnc2cnc3ccccc3c21` (stereo not drawn) the melting point was 170 to 174 °C.
In the case of `COCC1(C)OC(=O)N(c2cc(Cl)cc(Cl)c2)C1=O` (stereo not drawn), the melting point was 108 to 111 °C.
Compound `Cn1ncc(CC(=O)O)c1OCCCc1cn(-c2ccc(C(F)(F)F)cn2)nc1C1CCCCC1` has a melting point of 137 to 138 °C.
With `COC(=O)c1ccc(OC(C)=O)c(-n2cccc2)c1` the melting point was 49 to 51 °C.
Work on `O=C1OC(c2ccc(F)cc2)c2ncccc21` (stereo not drawn) yielded a melting point of 116 to 118 °C.
For `CS(=O)(=O)c1ccc(-c2c(-c3ccccc3)sc3ccccc23)cc1`, the melting point was 173 to 174 °C.
Compound `CCCCc1nc2c(N)nc3c(c2n1CC(C)C)CCNC3` has a melting point of 164 to 166 °C.
With `N=C(OCC1CC1)N1CCC(c2nsc3ccccc23)CC1` the melting point was 85 to 87 °C.
Compound `CC(C)CCOc1c(-c2ccc(S(C)(=O)=O)cc2)cnn(-c2ccc(F)c(F)c2)c1=O` has a melting point of 121 to 123 °C.
For `Cc1ncc(C(O)=S)cc1OC1CCCC1`, the melting point was 177 to 178 °C.
`COc1ccc(F)c(C(N)=O)c1F` gave a melting point of 167 to 169 °C.
For `COc1cc(NCCN(C)Cc2ccccc2)ccc1C(N)=O`, the melting point was 153 to 155 °C.
In the case of `Cc1cc(C)c2[nH]c(=O)n(CCCN3CC=C(c4ccc(Cl)cc4)CC3)c(=O)c2c1`, the melting point was 224 to 226 °C.
Compound `COc1ccccc1OCCNCCCc1c[nH]c2ccccc12` has a melting point of 101 to 102 °C.
`O=C(O)CCn1c(=O)n(CCCCN2CCC(OC(c3ccccc3)c3ccccc3)CC2)c(=O)c2ccccc21` showed a melting point of 110 to 112 °C.
Work on `CCc1cc(C(C)=O)c(O)c(C(=O)Nc2nnn[nH]2)c1` yielded a melting point of 257 to 258 °C.
Work on `O[C@H](c1ccc(F)cc1)[C@H](Cc1ccc(C(F)(F)F)cc1)NCc1cccc2ccccc12` (racemic) yielded a melting point of 94 to 95 °C.
Work on `Clc1ccc(Cl)c(CN2CCNc3ncc(I)cc32)c1` yielded a melting point of 169 °C.
With `COC(=S)Nc1ccc(OCc2nc3ccccc3s2)cc1` the melting point was 160 to 162 °C.
In the case of `C1=COc2ccc3[nH]c4c(c3c2=C1)C=CN=CC=4`, the melting point was > 177 °C.
Work on `CCCC(=O)OCC(CO)CCn1cnc2cnc(N)nc21` (stereo not drawn) yielded a melting point of 125 to 127 °C.
Compound `COC(=O)c1ccc2nc3c(nc2c1)SC(C#N)=C(C#N)S3` has a melting point of 133 to 135 °C.
For `C[C@@H](CSC(F)(F)C(F)F)[C@](O)(Cn1cncn1)c1ccc(Cl)cc1Cl`, the melting point was 61 to 63 °C.
`Oc1c2c(nn1-c1nc3ccccc3s1)CCc1ccccc1-2` showed a melting point of 234 to 235 °C.
In the case of `OCCOc1ccc2cccnc2c1`, the melting point was 93 to 95 °C.
Work on `CC(=O)NCC1CC(c2ccc(C3=CCN(C(=O)OC(C)(C)C)CC3)cc2)=NO1` (stereo not drawn) yielded a melting point of 117 to 120 °C.
With `Cc1ccc(C)c(-c2cn(C)cc(-c3cccc(C(F)(F)F)c3)c2=O)c1` the melting point was 165 to 167 °C.
Compound `COC1=CC(=O)C(OC)=C(CCCC2=C(OC)C(=O)C=C(OC)C2=O)C1=O` has a melting point of 157 to 159 °C.
With `CCCCCCCCCCCCCCCCCCOc1ccc(C(=O)O)o1` the melting point was 117 to 118 °C.
`CCNc1nnc2ccc(-c3cccc(N(C)C(=O)CC)c3)nn12` gave a melting point of 198 to 199 °C.
With `NS(=O)(=O)c1ccc(NC(=O)Nc2ccccc2-c2ccccc2)cc1` the melting point was 229 to 231 °C.
In the case of `O=C(O)Cc1ccc(OCCNC(=O)C2Cc3ccccc3N2S(=O)(=O)c2ccc(-c3cccc(C(F)(F)F)c3)c(F)c2)cc1` (stereo not drawn), the melting point was 82 °C.
`Cn1c(COc2ccc(CC3SC(=O)NC3=O)cc2)nc2ccccc21` (stereo not drawn) showed a melting point of 230 to 231 °C.
Compound `CN1CCN(S(=O)(=O)c2cccc(-c3cc(-c4nc(-c5ccc(C(F)(F)F)cc5)cc(C(F)(F)F)n4)ccn3)c2)CC1` has a melting point of 205 °C.
`COC(=O)c1ccc(C(=O)Oc2ccc([Si](C)(C)C)cc2C(C)=O)cc1` showed a melting point of 88.5 to 90.5 °C.
Compound `Brc1cccc(C2Cc3cnc(Nc4ccc(CCN5CCOCC5)cc4)nc3-c3ccccc32)c1` (stereo not drawn) has a melting point of 86 to 88 °C.
Compound `CC(=O)n1c(=O)oc2c(Cl)c(Cl)c(Cl)cc21` has a melting point of 171 to 172 °C.
`Clc1cccc(-c2nc(-c3ccccn3)no2)c1` gave a melting point of 136 to 140 °C.
In the case of `Cc1cccc([N+](=O)[O-])c1C(=O)Nc1nnn[nH]1`, the melting point was 230 to 232 °C.
Work on `O=C1CCC(c2ccccc2)(c2ccccc2)[C@@H]2CN(C(=O)Cc3ccccc3C(F)(F)F)C[C@H]12` (racemic) yielded a melting point of 207 °C.
With `CC(C)COc1c(-c2ccc(S(C)(=O)=O)cc2)cnn(-c2ccc(F)c(F)c2)c1=O` the melting point was 116 to 117 °C.
With `O=C(O)C1Cc2cccc([N+](=O)[O-])c2C1` (stereo not drawn) the melting point was 140 °C.
With `COc1ccc2c(c1OCc1ccccc1)CC(C(=O)O)N(C(=O)C(c1ccccc1)c1ccccc1)C2` (racemic) the melting point was 157 to 159 °C.
For `Cc1cc(-c2c(-c3ccc(S(N)(=O)=O)cc3)cnn(-c3ccc(F)c(Cl)c3)c2=O)ccc1F`, the melting point was 243 to 245 °C.
`O=C(O)CCCCCc1cnc2ccccc2c1` showed a melting point of 129 to 131 °C.
In the case of `CC(C(=O)O)c1ccc2c(c1)C(=O)c1ccccc1CN2C` (stereo not drawn), the melting point was 155 to 158 °C.
`CC(C)C1CC(=O)Nc2nc(C#N)c3ncccc3c21` (stereo not drawn) gave a melting point of 220 °C.
For `COc1ccc(C#N)c(C)n1`, the melting point was 80 to 80.5 °C.
`CCOC(=O)C=CC(=O)Nc1ccc(Cl)cc1C(=O)c1ccccc1Cl` gave a melting point of 113 to 114 °C.
`O=C(Nc1ccc(-c2ncc(-c3ccc(NC(=O)C4CCCCCC4)cc3)[nH]2)cc1)c1c(F)c(F)c(F)c(F)c1F` showed a melting point of 300 to 302 °C.
With `CC(C)(C)OC(=O)N1CCOc2ccccc21` the melting point was 78 to 79 °C.
With `COCC1CC(Cn2ccnc2)(c2ccc(Cl)cc2)N(C)O1` (stereo not drawn) the melting point was 123 to 126 °C.
`O=C(CCc1ccccc1)Nc1c(Cl)ccc2nc(N3CCNCC3)ccc12` showed a melting point of 231 to 234 °C.
In the case of `CCCCCNC(=O)c1cn2nc(N3CCN(C(=O)c4ccccc4C(F)(F)F)CC3)ccc2n1`, the melting point was 179 to 180 °C.
In the case of `CC(=O)c1cc(Cl)c(N=C=O)c(Cl)c1`, the melting point was 138 to 140 °C.
`CC(C)(C)OC(=O)Nc1ccc(-c2ccccc2F)cc1NC(=O)CC(=O)c1cc(C#N)ccc1F` gave a melting point of 170 °C.
In the case of `CCC(O)(C(=O)NC(C)c1ccccc1)c1cc2n(c(=O)c1CO)CCC21OCCO1` (stereo not drawn), the melting point was 115 to 116 °C.
Work on `CC(=O)c1cc(-c2ccncc2)sc1Oc1ccccc1` yielded a melting point of 103 to 105 °C.
In the case of `O=C(Nc1ccc(Cl)cn1)N[C@@H]1C[C@@H]1c1cccc([N+](=O)[O-])c1` (racemic), the melting point was 201 to 202 °C.
For `O=C(Cc1c(F)cccc1C(=O)O)Nc1cccc(/C=C/c2nc(C3CCC3)cs2)c1`, the melting point was 221 to 222 °C.
`CCCCCCCCNC(=O)[C@@H]1C[C@H]1c1ccc(NC(=O)/C=C\C(=O)O)cc1` (relative stereo) gave a melting point of 178 to 180 °C.
Compound `O=C1CNN(Cc2ccc(Cl)cc2Cl)C(=O)N1` has a melting point of 167 °C.
With `CCC(C)C(C(=O)O)N1C(=O)C2C3C=CC(C3)C2C1=O` (stereo not drawn) the melting point was 109 °C.
`CC(C)C[C@H](NC(=O)N1CCCCCC1)C(=O)N[C@H](Cc1ccc(OCc2ccccc2)cc1)C(=O)OC(C)(C)C` showed a melting point of 38 to 40 °C.
In the case of `Nc1ncnc2c1ncn2OC(CO)COCP(=O)(O)O` (stereo not drawn), the melting point was 222 to 225 °C.
`Cc1onc(-c2ccccc2)c1-c1csc(NC(=O)C(N)=O)n1` gave a melting point of 204 to 205 °C.
`COC(=O)c1sc(C)c(C)c1OC` gave a melting point of 37 to 39 °C.
Work on `Oc1cc(-c2cccc(C(F)(F)F)c2)nc2ccnn12` yielded a melting point of 305 to 310 °C.
Work on `CCS(=O)(=O)Nc1c(C)cccc1C` yielded a melting point of 90 °C.
With `Cc1ccc(Nc2nnc(Cc3ccncc3)c3ccccc23)cc1` the melting point was 152 to 153 °C.
`Cc1nc2ncnn2c(N2CCC(C)CC2)c1-c1ccc(F)cc1Cl` gave a melting point of 236 °C.
For `COCOc1ccc(C(=O)OC)c(O)c1C`, the melting point was 73.8 to 74 °C.
Compound `CCN(CC)C(=O)CCc1cc(-c2ccc(Cl)cc2)n(-c2ccc(OC)cc2)n1` has a melting point of 111 to 112 °C.
Compound `CCOC(=O)c1c(C)nc(-c2ccccc2)nc1-c1cc([N+](=O)[O-])ccc1S(C)=O` (stereo not drawn) has a melting point of 130 to 132 °C.
`c1cnc2ccc(Cn3nnc4ccc(-c5ccc(N6CCOCC6)nc5)nc43)cc2c1` showed a melting point of 183 to 185 °C.
In the case of `CCCCCCCCCCCCNC(=O)c1cc(-c2cccc(C(F)(F)F)c2)c(OCCO)c(-c2cccc(C(F)(F)F)c2)c1`, the melting point was 154 to 158 °C.
Compound `CCOC(=O)c1ccc(CCN2CCN(S(=O)(=O)c3ccccc3)CC2)cc1` has a melting point of 156 to 157 °C.
`O=C(O)C(Cc1nnn[nH]1)NC(=O)C(CS)C(F)(F)F` (stereo not drawn) showed a melting point of 158 to 161 °C.
Work on `COc1ccc(C2=NN(c3ccc(C(=O)Nc4ccc(-c5ccc(=O)[nH]n5)cc4)cc3)C(=O)[C@H]3CC=CC[C@@H]23)cc1OC` (relative stereo) yielded a melting point of 272 to 273 °C.
For `O=c1c2c[nH]c3ccccc3c-2nn1-c1ncccn1`, the melting point was > 360 °C.
In the case of `Cc1ccc(N2CCN(Cc3ccc4c(c3)NC(=O)CO4)CC2)cc1C`, the melting point was 148 to 153 °C.
Work on `CC(=O)N1CCC(OCCOc2ccc(C(N)=O)cc2)CC1` yielded a melting point of 154 to 155 °C.
`COc1cccc2c(=O)cc(C=Cc3ccc(C(=O)O)cc3)oc12` showed a melting point of 298 to 300 °C.
`COC(=O)C(C)c1ccc(C(=O)c2cccs2)cc1` (stereo not drawn) showed a melting point of 62 °C.
With `CCOC(=O)CCC(NC(=O)c1ccc(CNCC2CNc3nc(NC(=O)C(C)(C)C)nc(O)c3C2)cc1)C(=O)OCC` (stereo not drawn) the melting point was 146 to 147 °C.
In the case of `CCOC(=O)C1=C(N)OC(C)=C(C(C)=O)C1c1cccc([N+](=O)[O-])c1` (stereo not drawn), the melting point was 181 °C.
For `CCC1CC(=O)c2c(NC(=O)C(=O)O)ccc(C)c21` (stereo not drawn), the melting point was 176 to 177 °C.
For `COc1ccc(S(=O)(=O)Nc2cc(C)c(S(=O)(=O)C[N+](=O)[O-])c(C)c2)cc1`, the melting point was 141 to 142 °C.
`CCC(Nc1nc(NC(C)=O)nc(C(C)F)n1)c1ccccc1` (stereo not drawn) showed a melting point of 118 °C.
In the case of `CCCCCS(=O)(=O)NC(=O)/C=C/c1ccc(OCCC2(C)OCCO2)cc1Oc1ncc(C(F)(F)F)cc1Cl`, the melting point was 90 to 92 °C.
For `Cc1cn2cccc(C=Cc3ccccc3)c2n1`, the melting point was 101 to 105 °C.
In the case of `COc1ccc(CNc2nc(C)c(-c3ccncc3)s2)cc1OC`, the melting point was 134 to 135 °C.
`O=C1c2ccccc2C(=O)N1CCCCn1cnc(-c2ccc([N+](=O)[O-])cc2)c1` gave a melting point of 170 to 172 °C.
Compound `O=C1c2ccccc2-c2c1c1c(c(=O)n2CCCCNS(=O)(=O)c2ccccc2)C=CCC1` has a melting point of 184 to 186 °C.
`Cc1cccc(C)c1N(Cn1cncn1)C(=O)CCl` showed a melting point of 115 to 118 °C.
Work on `COc1c(Cl)cc(NC(=O)OCCCl)c(OC)c1[N+](=O)[O-]` yielded a melting point of 93 °C.
